From US20070225278A1, “Methods for treating cognitive and other disorders” (priority 2006, published 2007)

Columns and labels:
[1] = tested on: extracellular glutamate levels in the rat mPFC; experiment: In vivo microdialysis, glutamate in medial prefrontal cortex; conditions: 17 mg/kg s.c., acute
Experimental: (§1) Animals: Adult male Sprague-Dawley rats (Charles River, Wilmington, Mass.) weighing 280-350 g at the time of surgery were used for all microdialysis experiments. Adult male Long-Evans rats (Charles River, Wilmington, Mass.) weighing 180-220 g were used for NOR studies. Rats were housed individually for recognition memory studies. All animals had free access to food and water and were group housed in the AAALAC-accredited facility that was maintained on a 12 h light dark cycle (lights on at 0600 h) for at least 1 week prior to surgery or behavioral testing. All in vivo studies were performed in accordance to the ‘Guide for the Care and Use of Laboratory Animals’ as adopted and promulgated by the National Institutes of Health (Pub. 85-23, 1985).
Stereotaxic Surgery Following induction of anesthesia with 3% halothane (Fluothane; Zeneca, Cheshire, UK), animals were secured in a stereotaxic frame with ear and incisor bars (David Kopf, Tujunga, Calif.). Anesthesia was maintained by continuous administration of halothane (1-2%) while a microdialysis guide cannula (CMA/12, CMA Microdialysis, Stockholm, Sweden) was implanted above the medial prefrontal cortex (AP: 3.2 mm ML: −0.6 mm DV: −3.8 mm). […]
Dialysate (10 μL) f was collected and analyzed for extracellular glutamate concentrations. […]

[2] = tested on: male Sprague Dawley CD rats; experiment: Reversal of d-amphetamine induced deficits in pre-pulse inhibition (PPI); conditions: 3-17 mg/kg IP, d-amphetamine 4 mg/kg SC
[3] = tested on: male Sprague Dawley CD rats; experiment: Baseline PPI, compound administered alone; type: in vivo, rat; conditions: dose range that attenuates d-amphetamine and DOI deficits
Text: Inter-trial intervals averaged 15 s.

male Long-Evans rats = experiment: Novel object recognition (NOR); type: in vivo, rat
Experimental: as §1, with “All in vivo studies were performed in accordance to the ‘Guide for the Care and Use of Laboratory Animals’ as adopted and promulgated by the National Institutes of Health (Pub. 85-23, 1985).” left out
Novel object recognition (NOR) training and testing was performed in a circular field (diameter ˜70 cm, 30 cm high) constructed out of plastic and containing bedding. […] Animal performance was tracked by video and monitored by an experimenter located outside of the testing room. […]
The visual recognition task was divided into 3 sessions—habituation, a sample trial and a choice trial. […] The amount of time exploring the objects was recorded for the entire trial. […]
The effect of treatment on object exploration during the sample trial was examined using a one-way ANOVA on total contact time followed by Fisher's LSD group mean pairwise comparisons. The amount of time exploring the novel and familiar objects across treatment groups was analyzed using a repeated measures ANOVA followed by Fisher's LSD post hoc comparisons. […]

c1cc2c3c(c1)[C@H]1CCC[C@H]1N3CCNC2 [Compound 1]
glutamate levels compared to vehicle-treated animals [1]: 210%
attenuation of amphetamine induced deficit in PPI ([2]; all doses tested): significantly attenuated
effect on startle alone responding [2]: without having a significant effect
effect on baseline PPI when administered alone [3]: no effect
effect on exploration during the sample trial (male Long-Evans rats; 1 mg/kg orally): No significant effect
exploration of novel vs familiar object in choice trial (retention) (male Long-Evans rats; 1 mg/kg orally 60 minutes prior to sample trial, 48 hour retention interval): significantly greater time spent exploring the novel than the familiar object
